Data from ChEMBL document CHEMBL1201862, “PubChem BioAssay data set” (2004).
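Protocol summary: plate cells (96-well), add compound at 5 concentrations, incubate 48 h, interpolate endpoints linearly. GI50: concentration for 50% inhibition of growth.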 Activity calls are given as the source filed them. No stated cut-off is given here; in the data, active = GI50 up to about 1.1 µM and inactive = higher.

Key:
Assay in all cases: DTP human tumour cell line panel, 48 h
OVCAR-4 = test system: OVCAR-4
SW-620 = test system: SW-620
ACHN = test system: ACHN
HCT-15 = test system: HCT-15
COLO 205 = test system: COLO 205
RPMI-8226 = test system: RPMI-8226
CCRF-CEM = test system: CCRF-CEM
NCI-H460 = test system: NCI-H460
MOLT-4 = test system: MOLT-4
OVCAR-3 = test system: OVCAR-3
SK-MEL-28 = test system: SK-MEL-28
HL-60 = test system: HL-60
RXF 393 = test system: RXF 393
KM12 = test system: KM12
NCI-H522 = test system: NCI-H522
HT-29 = test system: HT-29
OVCAR-5 = test system: OVCAR-5

With `Cc1ccc(C2(C)NC(=S)N(NC(N)=S)C2=S)cc1` (centres undefined) the GI50 (OVCAR-4) was > 100 µM (inactive), the GI50 (SW-620) was 87.7 µM (inactive) and the GI50 (ACHN) was > 100 µM (inactive). For the same compound, the GI50 (HCT-15) was greater than 100 µM, the GI50 (COLO 205) was > 100 µM (inactive) and the GI50 (RPMI-8226) was 32.7 µM (inactive). For the same compound, the GI50 (CCRF-CEM) was 24.6 µM (inactive), the GI50 (NCI-H460) was > 100 µM (inactive) and the GI50 (MOLT-4) was 46.3 µM (inactive). The GI50 (OVCAR-3) was > 100 µM (inactive), the GI50 (SK-MEL-28) was > 100 µM (inactive) and the GI50 (HL-60) was > 100 µM (inactive). The GI50 (RXF 393) was 80.2 µM (inactive).
`CCSC(=O)C1(C)OC2CCCCC2C1=O` (centres undefined) was tested, and the GI50 (OVCAR-4) was > 100 µM (inactive), the GI50 (SW-620) was > 100 µM (inactive) and the GI50 (ACHN) was > 100 µM (inactive). For the same compound, the GI50 (HCT-15) was greater than 100 µM, the GI50 (COLO 205) was > 100 µM (inactive) and the GI50 (RPMI-8226) was > 100 µM (inactive). The GI50 (CCRF-CEM) was > 100 µM (inactive), the GI50 (NCI-H460) was > 100 µM (inactive) and the GI50 (MOLT-4) was > 100 µM (inactive). The GI50 (SK-MEL-28) was > 100 µM (inactive), the GI50 (HL-60) was > 100 µM (inactive) and the GI50 (KM12) was > 100 µM (inactive). The GI50 (RXF 393) was > 100 µM (inactive) and the GI50 (NCI-H522) was > 100 µM (inactive).
With `CCOP(=O)(C/C(=N/NC(C)(C)C)C(=O)Nc1nc2ccc(C)cc2s1)OCC` the GI50 (OVCAR-4) was > 100 µM (inactive), the GI50 (SW-620) was > 100 µM (inactive) and the GI50 (ACHN) was > 100 µM (inactive). The GI50 (HCT-15) was greater than 100 µM, the GI50 (COLO 205) was > 100 µM (inactive) and the GI50 (CCRF-CEM) was > 100 µM (inactive). The GI50 (NCI-H460) was > 100 µM (inactive), the GI50 (HT-29) was > 100 µM (inactive) and the GI50 (MOLT-4) was > 100 µM (inactive). For the same compound, the GI50 (OVCAR-3) was > 100 µM (inactive), the GI50 (OVCAR-5) was > 100 µM (inactive) and the GI50 (SK-MEL-28) was > 100 µM (inactive). For the same compound, the GI50 (HL-60) was > 100 µM (inactive), the GI50 (KM12) was > 100 µM (inactive) and the GI50 (RXF 393) was > 100 µM (inactive). For the same compound, the GI50 (NCI-H522) was > 100 µM (inactive).
For `CCOC(=O)/C([O-])=C(\C(=O)OCC)[n+]1c(C)n(C)c2ccccc21`, the GI50 (OVCAR-4) was > 100 µM (inactive), the GI50 (SW-620) was > 100 µM (inactive) and the GI50 (COLO 205) was > 100 µM (inactive). For the same compound, the GI50 (RPMI-8226) was > 100 µM (inactive), the GI50 (CCRF-CEM) was > 100 µM (inactive) and the GI50 (NCI-H460) was > 100 µM (inactive). The GI50 (HT-29) was > 100 µM (inactive), the GI50 (MOLT-4) was > 100 µM (inactive) and the GI50 (OVCAR-3) was > 100 µM (inactive). For the same compound, the GI50 (OVCAR-5) was > 100 µM (inactive), the GI50 (SK-MEL-28) was > 100 µM (inactive) and the GI50 (HL-60) was > 100 µM (inactive). The GI50 (KM12) was > 100 µM (inactive), the GI50 (RXF 393) was > 100 µM (inactive) and the GI50 (NCI-H522) was > 100 µM (inactive).
With `Cc1ccc(SSCCCS(=O)O)cc1` the GI50 (OVCAR-4) was 43.8 µM (inactive), the GI50 (SW-620) was 34.2 µM (inactive) and the GI50 (ACHN) was 37.4 µM (inactive). The GI50 (HCT-15) was 29.2 µM, the GI50 (COLO 205) was 24 µM (inactive) and the GI50 (NCI-H460) was 63.1 µM (inactive). The GI50 (HT-29) was 41.6 µM (inactive), the GI50 (MOLT-4) was 15.2 µM (inactive) and the GI50 (OVCAR-3) was 47 µM (inactive). The GI50 (OVCAR-5) was 74.6 µM (inactive), the GI50 (SK-MEL-28) was 45.7 µM (inactive) and the GI50 (HL-60) was 0.435 µM (active). The GI50 (KM12) was 28.8 µM (inactive), the GI50 (RXF 393) was 18.8 µM (inactive) and the GI50 (NCI-H522) was 18.1 µM (inactive).
In the case of `COc1cc2ccnc(-c3n[nH]c4cc(OC)c(OC)cc34)c2cc1OC`, the GI50 (OVCAR-4) is reported as > 100 µM (inactive), the GI50 (SW-620) is reported as > 100 µM (inactive) and the GI50 (ACHN) is reported as > 100 µM (inactive). For the same compound, the GI50 (HCT-15) was greater than 100 µM, the GI50 (COLO 205) was > 100 µM (inactive) and the GI50 (RPMI-8226) was > 100 µM (inactive). For the same compound, the GI50 (CCRF-CEM) was > 100 µM (inactive), the GI50 (NCI-H460) was > 100 µM (inactive) and the GI50 (HT-29) was > 100 µM (inactive). For the same compound, the GI50 (MOLT-4) was > 100 µM (inactive), the GI50 (OVCAR-3) was > 100 µM (inactive) and the GI50 (OVCAR-5) was > 100 µM (inactive). For the same compound, the GI50 (SK-MEL-28) was > 100 µM (inactive), the GI50 (HL-60) was > 100 µM (inactive) and the GI50 (KM12) was > 100 µM (inactive). For the same compound, the GI50 (NCI-H522) was 22 µM (inactive).
For `COc1ccc(CN2C(=O)C(Cc3cc(OC)c(OC)c(C)c3OC)N(C(=O)OC(C)C)C(=O)/C2=C/c2cc(OC)c(OC)c(C)c2OC)cc1` (centres undefined), the GI50 (OVCAR-4) was > 100 µM (inactive), the GI50 (SW-620) was > 100 µM (inactive) and the GI50 (ACHN) was > 100 µM (inactive). For the same compound, the GI50 (COLO 205) was 45.2 µM (inactive), the GI50 (RPMI-8226) was 16.4 µM (inactive) and the GI50 (CCRF-CEM) was 59.6 µM (inactive). For the same compound, the GI50 (NCI-H460) was 18.4 µM (inactive), the GI50 (HT-29) was > 100 µM (inactive) and the GI50 (MOLT-4) was 5.94 µM (inactive). The GI50 (OVCAR-3) was 16.1 µM (inactive), the GI50 (OVCAR-5) was > 100 µM (inactive) and the GI50 (SK-MEL-28) was > 100 µM (inactive). For the same compound, the GI50 (HL-60) was 7.96 µM (inactive), the GI50 (KM12) was > 100 µM (inactive) and the GI50 (RXF 393) was 6.9 µM (inactive). The GI50 (NCI-H522) was 4.4 µM (inactive).
For `C=CCN1C2Cc3cc(OC)c(OC)cc3C1Cc1cc(OC)c(OC)cc12`, the GI50 (OVCAR-4) was > 100 µM (inactive), the GI50 (SW-620) was > 100 µM (inactive) and the GI50 (ACHN) was > 100 µM (inactive). For the same compound, the GI50 (HCT-15) was greater than 100 µM, the GI50 (RPMI-8226) was > 100 µM (inactive) and the GI50 (CCRF-CEM) was > 100 µM (inactive). For the same compound, the GI50 (NCI-H460) was > 100 µM (inactive), the GI50 (HT-29) was 69 µM (inactive) and the GI50 (MOLT-4) was > 100 µM (inactive). The GI50 (OVCAR-3) was > 100 µM (inactive), the GI50 (OVCAR-5) was > 100 µM (inactive) and the GI50 (SK-MEL-28) was > 100 µM (inactive). The GI50 (KM12) was > 100 µM (inactive) and the GI50 (NCI-H522) was > 100 µM (inactive).
For `O=C(Nc1cccc2c1C(=O)c1c(NC(=O)c3ccccc3)ccc(Nc3cccc4c3C(=O)c3ccccc3C4=O)c1C2=O)c1ccccc1`, the GI50 (OVCAR-4) was > 100 µM (inactive), the GI50 (SW-620) was > 100 µM (inactive) and the GI50 (ACHN) was > 100 µM (inactive). For the same compound, the GI50 (HCT-15) was greater than 100 µM, the GI50 (COLO 205) was > 100 µM (inactive) and the GI50 (RPMI-8226) was > 100 µM (inactive). For the same compound, the GI50 (CCRF-CEM) was > 100 µM (inactive), the GI50 (NCI-H460) was > 100 µM (inactive) and the GI50 (MOLT-4) was > 100 µM (inactive). The GI50 (OVCAR-3) was > 100 µM (inactive), the GI50 (SK-MEL-28) was > 100 µM (inactive) and the GI50 (HL-60) was > 100 µM (inactive). For the same compound, the GI50 (KM12) was > 100 µM (inactive), the GI50 (RXF 393) was 59.4 µM (inactive) and the GI50 (NCI-H522) was > 100 µM (inactive).
